Results taken from patent publication US10800791B2, “Triazole ACC inhibitors and uses thereof” (Gilead Apollo, LLC, priority 2015, dated 2020).
Converted amounts (≈) assume the structure as drawn. Read-outs that look alike come from different tables or passages of the source.

Key:
[1] = biological target: fungal (fACC2) (UniProt Q00955); conditions: read-out: fACC2 (in vitro ACC2 Inhibition Assay, IC50), ADP-Glo, 5 nM ACC2, 20 μM ATP, 20 μM acetyl-CoA
[2] = test system: Botrtyis cinerea (Bc); assay: Growth inhibition assay of fungal pathogens, Bc; format: cell-based; conditions: 48 h
How it was run: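 Spore suspension in 17% V8 liquid media; cpd final 50/10/2 or 2/0.4/0.08 ppm, 2% DMSO. OD600 + visual, 24 & 48 h; % inhibition at 48 h vs 2% DMSO ctrl.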

[3] = Botrtyis cinerea, growth inhibition at 48 hours vs 2% DMSO control, read-out: Concentration at 90% Inhibition Bc
[4] = Botrtyis cinerea, growth inhibition vs 2% DMSO control at 48 hours, read-out: Concentration at 90% Inhibition Bc
[5] = read-out: Concentration at 90% Inhibition Bc, Botrtyis cinerea, growth inhibition at 48 hours vs 2% DMSO control
[6] = read-out: Concentration at 90% Inhibition Bc, Botrtyis cinerea, growth inhibition vs 2% DMSO control at 48 hours

Sequence of fungal (fACC2) (Q00955 whole entry): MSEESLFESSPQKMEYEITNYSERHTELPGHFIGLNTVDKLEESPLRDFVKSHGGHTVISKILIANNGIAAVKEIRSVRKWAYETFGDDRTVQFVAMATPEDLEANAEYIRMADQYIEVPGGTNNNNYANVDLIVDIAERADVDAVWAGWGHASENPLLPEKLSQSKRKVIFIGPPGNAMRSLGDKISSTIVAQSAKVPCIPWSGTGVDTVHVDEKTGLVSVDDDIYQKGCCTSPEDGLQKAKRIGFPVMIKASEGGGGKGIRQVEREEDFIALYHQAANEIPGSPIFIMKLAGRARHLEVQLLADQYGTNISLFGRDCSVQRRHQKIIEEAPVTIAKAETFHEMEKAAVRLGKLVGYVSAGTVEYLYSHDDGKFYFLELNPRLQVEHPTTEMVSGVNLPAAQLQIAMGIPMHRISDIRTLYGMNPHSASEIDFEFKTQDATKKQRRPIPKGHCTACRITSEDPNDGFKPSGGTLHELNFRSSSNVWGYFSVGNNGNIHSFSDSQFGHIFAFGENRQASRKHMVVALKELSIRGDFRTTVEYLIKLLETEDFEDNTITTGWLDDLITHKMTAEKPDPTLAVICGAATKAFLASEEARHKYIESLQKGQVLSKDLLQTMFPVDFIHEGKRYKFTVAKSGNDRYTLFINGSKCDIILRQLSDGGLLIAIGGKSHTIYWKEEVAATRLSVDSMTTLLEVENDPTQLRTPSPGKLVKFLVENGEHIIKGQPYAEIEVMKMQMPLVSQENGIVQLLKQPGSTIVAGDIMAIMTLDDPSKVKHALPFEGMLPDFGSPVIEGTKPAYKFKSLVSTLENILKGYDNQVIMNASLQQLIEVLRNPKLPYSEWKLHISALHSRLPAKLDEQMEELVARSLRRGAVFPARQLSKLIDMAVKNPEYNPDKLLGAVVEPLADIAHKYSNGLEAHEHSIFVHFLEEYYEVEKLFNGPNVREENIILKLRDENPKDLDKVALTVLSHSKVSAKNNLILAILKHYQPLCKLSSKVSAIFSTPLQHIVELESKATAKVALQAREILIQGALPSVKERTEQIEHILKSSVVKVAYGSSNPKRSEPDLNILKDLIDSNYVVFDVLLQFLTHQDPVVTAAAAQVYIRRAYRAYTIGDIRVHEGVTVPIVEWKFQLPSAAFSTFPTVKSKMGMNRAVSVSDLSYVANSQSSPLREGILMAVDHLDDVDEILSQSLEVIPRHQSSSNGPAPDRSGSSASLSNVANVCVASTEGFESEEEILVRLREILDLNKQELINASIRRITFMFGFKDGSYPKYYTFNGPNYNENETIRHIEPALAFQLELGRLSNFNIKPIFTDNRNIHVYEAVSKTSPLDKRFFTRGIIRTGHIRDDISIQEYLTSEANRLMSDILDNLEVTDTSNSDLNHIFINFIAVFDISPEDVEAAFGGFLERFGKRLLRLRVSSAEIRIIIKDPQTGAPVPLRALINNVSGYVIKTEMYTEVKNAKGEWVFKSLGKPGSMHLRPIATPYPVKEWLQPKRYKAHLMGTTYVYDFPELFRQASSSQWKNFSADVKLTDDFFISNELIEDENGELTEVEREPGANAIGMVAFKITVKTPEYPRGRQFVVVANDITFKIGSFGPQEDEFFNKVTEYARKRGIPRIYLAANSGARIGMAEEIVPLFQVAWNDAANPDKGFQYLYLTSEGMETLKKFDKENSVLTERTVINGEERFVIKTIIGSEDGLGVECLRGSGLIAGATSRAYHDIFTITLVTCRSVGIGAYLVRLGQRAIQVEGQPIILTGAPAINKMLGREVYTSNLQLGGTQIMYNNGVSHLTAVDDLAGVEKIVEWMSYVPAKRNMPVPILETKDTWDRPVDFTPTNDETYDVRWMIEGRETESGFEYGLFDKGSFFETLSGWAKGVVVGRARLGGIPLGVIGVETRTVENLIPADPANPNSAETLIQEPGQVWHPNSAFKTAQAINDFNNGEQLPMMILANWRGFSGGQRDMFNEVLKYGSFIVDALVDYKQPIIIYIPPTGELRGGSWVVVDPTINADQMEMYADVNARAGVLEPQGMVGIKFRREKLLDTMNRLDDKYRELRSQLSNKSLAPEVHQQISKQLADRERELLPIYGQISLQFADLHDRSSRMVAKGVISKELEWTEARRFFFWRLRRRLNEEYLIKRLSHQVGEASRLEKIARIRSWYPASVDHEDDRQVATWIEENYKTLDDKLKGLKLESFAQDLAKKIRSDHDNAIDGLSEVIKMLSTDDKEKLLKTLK

Compound: COc1ccc(F)cc1[C@H](Cn1c(=O)n(C(C)(C)C(N)=O)c(=O)c2c(C)c(-n3nccn3)sc21)OC1CCOCC1 [Compound I-1]
- IC50 ([1]; Table 2a): 1 to 5 nM
- IC50 ([1]; Table 2b, additional results): 1 to 5 nM
- IC90 [2, 3]: 2 µg/mL (≈ 3.41 µM)
- IC90 [2, 4]: 2 µg/mL (≈ 3.41 µM)

Compound: COc1ccc(F)cc1[C@H](Cn1c(=O)n(C(C)(C)C(N)=O)c(=O)c2c(C)c(-n3nccn3)sc21)OC(C)C [Compound I-2, (R)-2-(1-(2-(5-fluoro-2-methoxyphenyl)-2-isopropoxyethyl)-5-methyl-2,4-dioxo-6-(2H-1,2,3-triazol-2-yl)-1,4-dihydrothieno[2,3-d]pyrimidin-3(2H)-yl)-2-methylpropanamide]
- IC50 ([1]; Table 2a): 1 to 5 nM
- IC50 ([1]; Table 2b, additional results): 1 to 5 nM
- IC90 [2, 3]: 2 µg/mL (≈ 3.67 µM)
- IC90 [2, 4]: 2 µg/mL (≈ 3.67 µM)

Compound: CCNC(=O)C(C)(C)n1c(=O)c2c(C)c(-n3nccn3)sc2n(C[C@H](OC(C)C)c2cc(F)ccc2OC)c1=O [Compound I-3, (R)—N-ethyl-2-(1-(2-(5-fluoro-2-methoxyphenyl)-2-isopropoxyethyl)-5-methyl-2,4-dioxo-6-(2H-1,2,3-triazol-2-yl)-1,4-dihydrothieno[2,3-d]pyrimidin-3(2H)-yl)-2-methylpropanamide]
- IC50 ([1]; Table 2a): 1 to 5 nM
- IC50 ([1]; Table 2b, additional results): 1 to 5 nM
- IC90 [2, 5]: 0.4 µg/mL (≈ 0.698 µM)
- IC90 [2, 6]: 0.4 µg/mL (≈ 0.698 µM)

Compound: COc1ccc(F)cc1[C@H](Cn1c(=O)n(C(C)(C)C(=O)NC(C)C)c(=O)c2c(C)c(-n3nccn3)sc21)OC(C)C [Compound I-4, (R)-2-(1-(2-(5-fluoro-2-methoxyphenyl)-2-isopropoxyethyl)-5-methyl-2,4-dioxo-6-(2H-1,2,3-triazol-2-yl)-1,4-dihydrothieno[2,3-d]pyrimidin-3(2H)-yl)-N-isopropyl-2-methylpropanamide]
- IC50 ([1]; Table 2a): 1 to 5 nM
- IC50 ([1]; Table 2b, additional results): 1 to 5 nM
- IC90 [2, 5]: 0.08 µg/mL (≈ 0.136 µM)
- IC90 [2, 6]: 0.08 µg/mL (≈ 0.136 µM)

Compound: COc1ccc(F)cc1[C@H](Cn1c(=O)n(C(C)(C)C(=O)N2CCOCC2)c(=O)c2c(C)c(-n3nccn3)sc21)OC(C)C [Compound I-5, (R)-1-(2-(5-fluoro-2-methoxyphenyl)-2-isopropoxyethyl)-5-methyl-3-(2-methyl-1-morpholino-1-oxopropan-2-yl)-6-(2H-1,2,3-triazol-2-yl)thieno[2,3-d]pyrimidine-2,4(1H,3H)-dione]
- IC90 [2, 5]: 0.4 µg/mL (≈ 0.651 µM)
- IC90 [2, 6]: 0.4 µg/mL (≈ 0.651 µM)

Compound: COc1ccc(F)cc1[C@H](Cn1c(=O)n(C(C)(C)C(=O)N2CCCCC2)c(=O)c2c(C)c(-n3nccn3)sc21)OC(C)C [Compound I-6, (R)-1-(2-(5-fluoro-2-methoxyphenyl)-2-isopropoxyethyl)-5-methyl-3-(2-methyl-1-oxo-1-(piperidin-1-yl)propan-2-yl)-6-(2H-1,2,3-triazol-2-yl)thieno[2,3-d]pyrimidine-2,4(1H,3H)-dione]
- IC90 [2, 5]: 0.08 µg/mL (≈ 0.131 µM)
- IC90 [2, 6]: 0.08 µg/mL (≈ 0.131 µM)

Compound: COc1ccc(F)cc1[C@H](Cn1c(=O)n(C(C)(C)C(=O)N2CCCC2)c(=O)c2c(C)c(-n3nccn3)sc21)OC(C)C [Compound I-7, (R)-1-(2-(5-fluoro-2-methoxyphenyl)-2-isopropoxyethyl)-5-methyl-3-(2-methyl-1-oxo-1-(pyrrolidin-1-yl)propan-2-yl)-6-(2H-1,2,3-triazol-2-yl)thieno[2,3-d]pyrimidine-2,4(1H,3H)-dione]
- IC50 ([1]; Table 2a): 1 to 5 nM
- IC50 ([1]; Table 2b, additional results): 1 to 5 nM
- IC90 [2, 3]: 0.4 µg/mL (≈ 0.668 µM)
- IC90 [2, 4]: 0.4 µg/mL (≈ 0.668 µM)

Compound: COc1ccc(F)cc1[C@H](Cn1c(=O)n(C(C)(C)C(N)=O)c(=O)c2c(C)c(-n3nccn3)sc21)OCC(C)C [Compound I-8, (R)-2-(1-(2-(5-fluoro-2-methoxyphenyl)-2-isobutoxyethyl)-5-methyl-2,4-dioxo-6-(2H-1,2,3-triazol-2-yl)-1,4-dihydrothieno[2,3-d]pyrimidin-3(2H)-yl)-2-methylpropanamide]
- IC90 [2, 3]: 2 µg/mL (≈ 3.58 µM)
- IC90 [2, 4]: 2 µg/mL (≈ 3.58 µM)

Compound: CCNC(=O)C(C)(C)n1c(=O)c2c(C)c(-n3nccn3)sc2n(C[C@H](OCC(C)C)c2cc(F)ccc2OC)c1=O [Compound I-9, (R)—N-ethyl-2-(1-(2-(5-fluoro-2-methoxyphenyl)-2-isobutoxyethyl)-5-methyl-2,4-dioxo-6-(2H-1,2,3-triazol-2-yl)-1,4-dihydrothieno[2,3-d]pyrimidin-3(2H)-yl)-2-methylpropanamide]
- IC90 [2, 3]: 0.4 µg/mL (≈ 0.682 µM)
- IC90 [2, 4]: 0.4 µg/mL (≈ 0.682 µM)

Compound: COc1ccc(F)cc1[C@H](Cn1c(=O)n(C(C)(C)C(=O)N2CCCCC2)c(=O)c2c(C)c(-n3nccn3)sc21)OCC(C)C [Compound I-11, (R)-1-(2-(5-fluoro-2-methoxyphenyl)-2-isobutoxyethyl)-5-methyl-3-(2-methyl-1-oxo-1-(piperidin-1-yl)propan-2-yl)-6-(2H-1,2,3-triazol-2-yl)thieno[2,3-d]pyrimidine-2,4(1H,3H)-dione]
- IC90 [2, 5]: 0.4 µg/mL (≈ 0.638 µM)
- IC90 [2, 6]: 0.4 µg/mL (≈ 0.638 µM)

Compound: COc1ccc(F)cc1[C@H](Cn1c(=O)n(C(C)(C)C(=O)N2CCCC2)c(=O)c2c(C)c(-n3nccn3)sc21)OCC(C)C [Compound I-12, (R)-1-(2-(5-fluoro-2-methoxyphenyl)-2-isobutoxyethyl)-5-methyl-3-(2-methyl-1-oxo-1-(pyrrolidin-1-yl)propan-2-yl)-6-(2H-1,2,3-triazol-2-yl)thieno[2,3-d]pyrimidine-2,4(1H,3H)-dione]
- IC90 [2, 3]: 0.4 µg/mL (≈ 0.653 µM)
- IC90 [2, 4]: 0.4 µg/mL (≈ 0.653 µM)

Compound: COc1ccccc1[C@H](Cn1c(=O)n(C(C)(C)C(N)=O)c(=O)c2c(C)c(-n3nccn3)sc21)OC1CCOCC1 [Compound I-14, (R)-2-(1-(2-(2-methoxyphenyl)-2-((tetrahydro-2H-pyran-4-yl)oxy)ethyl)-5-methyl-2,4-dioxo-6-(2H-1,2,3-triazol-2-yl)-1,4-dihydrothieno[2,3-d]pyrimidin-3(2H)-yl)-2-methylpropanamide]
- IC90 [2, 3]: 2 µg/mL (≈ 3.52 µM)
- IC90 [2, 4]: 2 µg/mL (≈ 3.52 µM)

Compound: CCNC(=O)C(C)(C)n1c(=O)c2c(C)c(-n3nccn3)sc2n(C[C@H](OC2CCOCC2)c2ccccc2OC)c1=O [Compound I-15, (R)—N-ethyl-2-(1-(2-(2-methoxyphenyl)-2-((tetrahydro-2H-pyran-4-yl)oxy)ethyl)-5-methyl-2,4-dioxo-6-(2H-1,2,3-triazol-2-yl)-1,4-dihydro-thieno[2,3-d]pyrimidin-3(2H)-yl)-2-methylpropanamide]
- IC90 [2, 3]: 0.4 µg/mL (≈ 0.67 µM)
- IC90 [2, 4]: 0.4 µg/mL (≈ 0.67 µM)

Compound: COc1ccccc1[C@H](Cn1c(=O)n(C(C)(C)C(=O)N2CC(O)C2)c(=O)c2c(C)c(-n3nccn3)sc21)OC1CCOCC1 [Compound I-19, (R)-3-(1-(3-hydroxyazetidin-1-yl)-2-methyl-1-oxopropan-2-yl)-1-(2-(2-methoxyphenyl)-2-((tetrahydro-2H-pyran-4-yl)oxy)ethyl)-5-methyl-6-(2H-1,2,3-triazol-2-yl)thieno[2,3-d]pyrimidine-2,4(1H,3H)-dione]
- IC90 [2, 5]: 10 µg/mL (≈ 16 µM)
- IC90 [2, 6]: > 50 µg/mL

Compound: COc1ccc(F)cc1[C@H](Cn1c(=O)n(C(C)(C)C(=O)N2CCCCC2)c(=O)c2c(C)c(-n3nccn3)sc21)OC1CCOCC1 [Compound I-24, (R)-1-(2-(5-fluoro-2-methoxyphenyl)-2-((tetrahydro-2H-pyran-4-yl)oxy)ethyl)-5-methyl-3-(2-methyl-1-oxo-1-(piperidin-1-yl)propan-2-yl)-6-(2H-1,2,3-triazol-2-yl)thieno[2,3-d]pyrimidine-2,4(1H,3H)-dione]
- IC90 [2, 5]: 0.4 µg/mL (≈ 0.611 µM)
- IC90 [2, 6]: 0.4 µg/mL (≈ 0.611 µM)

Compound: COc1ccc(F)cc1[C@H](Cn1c(=O)n(C(C)(C)C(=O)N2CC(O)C2)c(=O)c2c(C)c(-n3nccn3)sc21)OC1CCOCC1 [Compound I-26, (R)-1-(2-(5-fluoro-2-methoxyphenyl)-2-((tetrahydro-2H-pyran-4-yl)oxy)ethyl)-3-(1-(3-hydroxyazetidin-1-yl)-2-methyl-1-oxopropan-2-yl)-5-methyl-6-(2H-1,2,3-triazol-2-yl)thieno[2,3-d]pyrimidine-2,4(1H,3H)-dione]
- IC90 [2, 3]: 2 µg/mL (≈ 3.11 µM)
- IC90 [2, 4]: 2 µg/mL (≈ 3.11 µM)

Compound: COc1ccc(F)cc1[C@H](Cn1c(=O)n(C(C)(C)C(N)=O)c(=O)c2c(C)c(-n3nccn3)sc21)OC1CCC(=O)CC1 [Compound I-31, (R)-2-(1-(2-(5-fluoro-2-methoxyphenyl)-2-((4-oxocyclo-hexyl)oxy)ethyl)-5-methyl-2,4-dioxo-6-(2H-1,2,3-triazol-2-yl)-1,4-dihydrothieno[2,3-d]pyrimidin-3(2H)-yl)-2-methylpropanamide]
- IC90 [2, 3]: 0.4 µg/mL (≈ 0.668 µM)
- IC90 [2, 4]: 0.4 µg/mL (≈ 0.668 µM)

Compound: COc1ccc(F)cc1[C@H](Cn1c(=O)n(C(C)(C)C(=O)NC(C)C)c(=O)c2c(C)c(-n3nccn3)sc21)OC1CCC(=O)CC1 [Compound I-32, (R)-2-(1-(2-(5-fluoro-2-methoxyphenyl)-2-((4-oxocyclo-hexyl)oxy)ethyl)-5-methyl-2,4-dioxo-6-(2H-1,2,3-triazol-2-yl)-1,4-dihydro-thieno[2,3-d]pyrimidin-3(2H)-yl)-N-isopropyl-2-methylpropanamide]
- IC90 [2, 5]: 0.08 µg/mL (≈ 0.125 µM)
- IC90 [2, 6]: 0.08 µg/mL (≈ 0.125 µM)

Compound: COc1ccc(F)cc1[C@H](Cn1c(=O)n(C(C)(C)C(=O)N2CCCC2)c(=O)c2c(C)c(-n3nccn3)sc21)OC1CCC(=O)CC1 [Compound I-33, (R)-1-(2-(5-fluoro-2-methoxyphenyl)-2-((4-oxocyclo-hexyl)oxy)ethyl)-5-methyl-3-(2-methyl-1-oxo-1-(pyrrolidin-1-yl)propan-2-yl)-6-(2H-1,2,3-triazol-2-yl)thieno[2,3-d]pyrimidine-2,4(1H,3H)-dione]
- IC90 [2, 3]: 0.4 µg/mL (≈ 0.613 µM)
- IC90 [2, 4]: 0.4 µg/mL (≈ 0.613 µM)
